Patent US20230192764A1, “NOVEL DOPAMINE PRECURSORS” (Yissum Research Development Company of the Hebrew …, priority 2018, published 2023)
Several values for one entry are separate records, joined by “and”; a condition that tells them apart may be missing. Equal entries are not always repeated.

Legend:
[1] = system: Rotenone -induced model of Parkinson's disease (PD) in rats; assay: Rat rearing behavior (cylinder) test, rotenone model; type: in vivo, Sprague Dawley rats; details: for Cylinder rise and touch (number of rears in 2 min): individual rat, listed as SD
Description: (§1) 1-SD (Rotenone + SD); 2 - SDA (Rotenone + SDA); 3 - Control (Rotenone); 4 -Naive. The experimental groups were comprised of 6 animals for treated groups (1-3) and 2 animals in naive group (4). Rotenone was administrated 3.0 mg/kg intraperitoneally (IP) once a day in the morning (days 1-9). SD 33 mg/kg and SDA 33 mg/kg were administrated intraperitoneally once a day in the afternoon (days 1-9).
(§2) Rearing behavior, rotarod and beam walk tests were performed before initiation of treatment (day 0) as well as on days 4, 8 and 10 of the experiment.
(§3) IP administration: Rotenone was administrated to groups 1-3. Rotenone was injected intraperitoneally at a dose 3.0 mg/kg once a day in the morning (days 1-9). SD and SDA was administrated both at a dose of 33 mg/kg and were injected intraperitoneally once a day in the afternoon (days 1-9). Group number 4 was untreated, and remained as a naive group.
Animals were placed in a clear glass cylinder (40 cm high and 20 cm diameter) and number of rears in 2 min was observed. Rear was considered as animals raised their hands above the shoulder and made contact with the wall of cylinder with their forelimb.

[2] = system: Rotenone -induced model of Parkinson's disease (PD) in rats; assay: Rotarod behavior assay, rotenone model; type: in vivo, Sprague Dawley rats; details: for R.R (rotarod): individual rat, listed as SD
Description: as §1, §2, §3
The test was used to evaluate motor coordination and balance. Apparatus was set to accelerate from 4 to 40 rpm in 300 s, and animals from same cage are placed in separate lanes on rod initially rotating at 4 rpm.

JNK phosphorylation = assay: AuF-induced phosphorylation of JNK in SH-SY5Y cells, western blot; type: cell-based, human
Description: SH-SY5Y cells were treated with 10 µM AuF with or without SD-444. Phosphorylation was determined by western blot analysis. The amount of each band was quantitated by densitometry and plotted with a linear regression program normalized to total JNK.
(§4) In the assay, twenty to thirty micrograms of protein samples were loaded on 10-12% SDS-PAGE gels. The proteins were then transferred electrophoretically to nitrocellulose (Whatman, Germany). The blots were blocked by incubation for 1 h at RT in TBS-T (25 mM Tris-HCl pH 7.4, 0.9% NaCl and 0.02% Tween-20) with 4% Difco skim milk (BD, USA), and incubated over-night at 4° C. with the primary antibody: p-p38^MAPK (Thr180/Tyr182), rabbit mAb; p38, rabbit Ab.
as §4, with “1h” for “1 h”, “p-JNK^MAPK, and β-catenin.” for “p-p38^MAPK (Thr180/Tyr182), rabbit mAb; p38, rabbit Ab.”

p38MAPK phosphorylation = assay: AuF-induced phosphorylation of p38MAPK in SH-SY5Y cells, western blot; type: cell-based, human
Description: Cells were treated with 10 µM AuF with or without SD-444. Phosphorylation was determined by western blot analysis. The amount of each band was quantitated by densitometry and plotted with a linear regression program normalized with β catenin (b-cat).
as §4

[3] = system: human neuroblastoma cells (SH-SY5Y); assay: Viability of SH-SY5Y cells after auranofin (AuF) challenge, methylene blue staining; type: cell-based; details: SH-SY5Y pre-treated with 5 µM AuF 30 min, washed, compound added, viability 24 h later
Description: Viability of cells pre-treated with 5 µM AuF for 30 min, washed and later exposed to increasing concentrations of SD-444, was determined 24 h later.
A) The anti-apoptotic activity of SD-444 was tested on human neuronal cells SH-SY5Y. The cells were challenged by auranofin (AuF) that induces cellular stress by selectively blocking the thioredoxin reductase activity.
SH-SY5Y cells were plated on 96-well plates and treated with AuF in different concentrations for 30 min. Then the cells were washed with PBS and treated as indicated. Twenty-four hours later, the cells were fixed with glutaraldehyde in final concentration of 0.5% for 10 min. Cells were washed 3 times with DDW dried overnight, and washed once with borate buffer (0.1 M, pH 8.5). The fixed cells were stained with 200 µl of 1% methylene blue dissolved in borate buffer for 1 h. After extensive washing and drying, the color was extracted with 200 µl of 0.1 M HCl for 1 h at 37° C. and absorbance was read in spectrophotometer at 630 nm.

[4] = system: Rotenone -induced model of Parkinson's disease (PD) in rats; assay: Rat beam walk test, rotenone model; type: in vivo, Sprague Dawley rats; details: for beam end time: individual rat, listed as SD
Description: as §1, §2, §3
Animals were gently placed on 1 m long narrow aluminum beam facing one of the ends and allowed to walk to the end of the beam.

[5] = Body weight monitoring in rotenone-treated rats; type: in vivo, Sprague Dawley rats; details: for Weight: individual rat, listed as SD
Description: as §1
Animals weight was measured before initiation of treatment (day 0), on days 4,7, 9 during the experiment and on termination day 11. On day 11, animals were sacrificed and brains were harvested for further histopathological analysis.
as §3

[6] = average n=6, day 0 (before treatment)
[7] = day 0 (before treatment), rotenone 3 mg/kg + compound 33 mg/kg IP
[8] = rats, rotenone 3.0 mg/kg IP + compound 33 mg/kg IP, days 1-9

Structure (SMILES): CC(=O)NC(CS)C(=O)NC(Cc1cccc(O)c1O)C(=O)NC(CS)C(N)=O (stereo not shown) [SD-444, Acetyle-Cys-2,3 dihydroxyphenylalanin-Cys- amide]
- Cylinder rise and touch, group average [1, 6]: 12.33
- Cylinder rise and touch, group average ([1]; average n=6, day 4): 14.00
- Cylinder rise and touch, group average ([1]; average n=6, day 8): 12.33
- Cylinder rise and touch, group average ([1]; average n=6, day 10): 13.00
- Cylinder rise and touch (number of rears in 2 min) [1, 7]: 13 (3×) and 8 and 18 and 9
- Cylinder rise and touch (number of rears in 2 min) ([1]; day 4): 22 and 9 and 12 and 13 (2×) and 15
- Cylinder rise and touch (number of rears in 2 min) ([1]; day 8): 9 and 10 (2×) and 18 and 15 and 12
- Cylinder rise and touch (number of rears in 2 min) ([1]; day 10): 16 and 13 and 17 and 9 and 15 and 8
- Cylinder test, maintaining locomotor activity in Rotenone-treated rats [1, 8]: very effective
- R.R (rotarod), group average [2, 6]: 283.33 s
- R.R (rotarod), group average ([2]; average n=6, day 4): 275.00 s
- R.R (rotarod), group average ([2]; average n=6, day 8): 256.67 s
- R.R (rotarod), group average ([2]; average n=6, day 10): 240.50 s
- R.R (rotarod) [2, 7]: 274 s and 280 s and 288 s and 300 s and 291 s and 267 s
- R.R (rotarod) ([2]; day 4): 280 sec and 268 sec and 300 sec (2×) and 247 sec and 255 sec
- R.R (rotarod) ([2]; day 8): 249 s and 251 s and 282 s and 267 s and 254 s and 237 s
- R.R (rotarod) ([2]; day 10): 248 s and 255 s and 258 s and 266 s and 224 s and 192 s
- rotarod test, motor dysregulation mediated by rotenone [2, 8]: significantly reversed
- concentration at which significant reduction in JNK activation is seen (JNK phosphorylation; 10 µM AuF, western blot): 10 µM
- JNK phosphorylation (AuF-triggered) (JNK phosphorylation; summary statement): inhibit
- concentration at which significant reduction in p38 activation is seen (p38MAPK phosphorylation; 10 µM AuF, western blot): 30 µM
- p38 phosphorylation (AuF-triggered) (p38MAPK phosphorylation; summary statement): inhibit
- neuronal cell-viability after AuF [3]: partially restored
- neuronal cell-viability after AuF ([3]; listed as SD): increase viability
- beam end time, group average [4, 6]: 11.33 s
- beam end time, group average ([4]; average n=6, day 4): 20.17 s
- beam end time, group average ([4]; average n=6, day 8): 22.00 s
- beam end time, group average ([4]; average n=6, day 10): 22.67 s
- beam end time [4, 7]: 10 sec (2×) and 19 sec and 5 sec and 8 sec and 16 sec
- beam end time ([4]; day 4): 31 s and 13 s and 15 s and 6 s and 38 s and 18 s
- beam end time ([4]; day 8): 23 s and 22 s and 18 s and 16 s and 21 s and 32 s
- beam end time ([4]; day 10): 43 s and 23 s and 17 s and 12 s and 27 s and 14 s
- Walk-beam test, reversal of rotenone induced imbalance [4, 8]: very effective
- Weight, group average [5, 6]: 304.83 gr
- Weight, group average ([5]; average n=6, day 4): 299.83 gr
- Weight, group average ([5]; average n=6, day 7): 294.17 gr
- Weight, group average ([5]; average n=6, day 9): 290.17 gr
- Weight, group average ([5]; average n=6, day 11): 283.17 gr
- Weight [5, 7]: 300 gr (2×) and 307 gr and 294 gr and 315 gr and 313 gr
- Weight ([5]; day 4, rotenone 3 mg/kg + compound 33 mg/kg IP): 299 gr (2×) and 296 gr and 290 gr and 310 gr and 305 gr
- Weight ([5]; day 7, rotenone 3 mg/kg + compound 33 mg/kg IP): 298 gr and 281 gr and 286 gr and 305 gr and 294 gr and 301 gr
- Weight ([5]; day 9, rotenone 3 mg/kg + compound 33 mg/kg IP): 295 gr and 285 gr and 280 gr and 298 gr and 286 gr and 297 gr
- Weight ([5]; day 11, rotenone 3 mg/kg + compound 33 mg/kg IP): 290 gr (2×) and 278 gr and 284 gr and 283 gr and 274 gr
